Assay results reported in US11149054B2, “Oxysterols and methods of use thereof” (Sage Therapeutics, Inc., priority 2016, dated 2021).
Like-named read-outs stand apart in the source and are kept apart here.

Experiments:
[1] = target: GlunN1/GluN2A glutamate receptors (Homo sapiens (Human), UniProt Q05586+Q12879); assay: Whole-cell patch clamp of mammalian cells (Ionworks Barracuda), positive allosteric modulation, GluN1/GluN2A; type: cell-based
Experimental: (§1) The measurements were performed using Ion Works Barracuda platform following this procedure:
(§2) Electrophysiological Procedures:
(§3) • a) Intracellular solution (mM): 50 mM CsCl, 90 mM CsF, 2 mM MgCl2, 5 mM EGTA, 10 mM HEPES. Adjust to pH 7.2 with CsOH. • b) Extracellular solution, HB-PS (composition in mM): NaCl, 137; KCl, 1.0; CaCl2), 5; HEPES, 10; Glucose, 10; pH adjusted to 7.4 with NaOH (refrigerated until use). • c) Holding potential: −70 mV, potential during agonist/PAM application: −40 mV. Recording Procedure: • a) Extracellular buffer will be loaded into the PPC plate wells (11 μL per well). Cell suspension will be pipetted into the wells (9 μL per well) of the PPC planar electrode. • b) Whole-cell recording configuration will be established via patch perforation with membrane currents recorded by on-board patch clamp amplifiers. • c) Two recordings (scans) will be performed. First, during pre-application of test article alone (duration of pre-application—[…]) and second, during test articles and agonist (EC20 L-glutamate and 30 μM glycine) co-application to detect positive modulatory effects of the test article. […] Potentiating Effect of Positive Allosteric Modulators (PAM) on the Channel
(§4) PAM concentration-response data will be fitted to an equation of the form: % Activation=% L-glutamate EC20+{(% MAX−% L-glutamate EC20)/[1+([Test]/EC50)^N]}, where [Test] will be the concentration of PAM (test article), EC50 will be the concentration of PAM producing half-maximal activation, N will be the Hill coefficient, % L-glutamate EC20 will be the percentage of the current Elicited with L-glutamate EC20, % MAX is the percentage of the current activated with the highest dose of PAM co-admitted with L-glutamate EC20 and % Activation will be the percentage of the current elicited with L-glutamate EC10-30 at each PAM concentration. The maximal amplitude of the evoked currents are measured and defined as Peak Current Amplitude (PCA).

[2] = target: GluN2B glutamate receptors (Homo sapiens (Human), UniProt Q05586+Q13224); assay: Whole-cell patch clamp of mammalian cells (Ionworks Barracuda), positive allosteric modulation, GluN2B; type: cell-based; details: for Emax: read-out: Avg Emax 2B (%)
Experimental: as §1, §2, §3, §4

[3] = HEK293 cells, % potentiation of current elicited with EC20 L-glutamate and 30 μM glycine, read-out: Avg Emax 2A (%)
[4] = % potentiation of current elicited with EC20 L-glutamate and 30 μM glycine
[5] = HEK293 cells, co-application with EC20 L-glutamate and 30 μM glycine, 8-point concentration-response, read-out: Avg EC50 2A
[6] = co-application with EC20 L-glutamate and 30 μM glycine, 8-point concentration-response, read-out: Avg EC50 2B
[7] = HEK293, read-out: Avg Emax 2A (%)

Chain of GluN2B glutamate receptors (Q13224 27-1484, other chains not shown): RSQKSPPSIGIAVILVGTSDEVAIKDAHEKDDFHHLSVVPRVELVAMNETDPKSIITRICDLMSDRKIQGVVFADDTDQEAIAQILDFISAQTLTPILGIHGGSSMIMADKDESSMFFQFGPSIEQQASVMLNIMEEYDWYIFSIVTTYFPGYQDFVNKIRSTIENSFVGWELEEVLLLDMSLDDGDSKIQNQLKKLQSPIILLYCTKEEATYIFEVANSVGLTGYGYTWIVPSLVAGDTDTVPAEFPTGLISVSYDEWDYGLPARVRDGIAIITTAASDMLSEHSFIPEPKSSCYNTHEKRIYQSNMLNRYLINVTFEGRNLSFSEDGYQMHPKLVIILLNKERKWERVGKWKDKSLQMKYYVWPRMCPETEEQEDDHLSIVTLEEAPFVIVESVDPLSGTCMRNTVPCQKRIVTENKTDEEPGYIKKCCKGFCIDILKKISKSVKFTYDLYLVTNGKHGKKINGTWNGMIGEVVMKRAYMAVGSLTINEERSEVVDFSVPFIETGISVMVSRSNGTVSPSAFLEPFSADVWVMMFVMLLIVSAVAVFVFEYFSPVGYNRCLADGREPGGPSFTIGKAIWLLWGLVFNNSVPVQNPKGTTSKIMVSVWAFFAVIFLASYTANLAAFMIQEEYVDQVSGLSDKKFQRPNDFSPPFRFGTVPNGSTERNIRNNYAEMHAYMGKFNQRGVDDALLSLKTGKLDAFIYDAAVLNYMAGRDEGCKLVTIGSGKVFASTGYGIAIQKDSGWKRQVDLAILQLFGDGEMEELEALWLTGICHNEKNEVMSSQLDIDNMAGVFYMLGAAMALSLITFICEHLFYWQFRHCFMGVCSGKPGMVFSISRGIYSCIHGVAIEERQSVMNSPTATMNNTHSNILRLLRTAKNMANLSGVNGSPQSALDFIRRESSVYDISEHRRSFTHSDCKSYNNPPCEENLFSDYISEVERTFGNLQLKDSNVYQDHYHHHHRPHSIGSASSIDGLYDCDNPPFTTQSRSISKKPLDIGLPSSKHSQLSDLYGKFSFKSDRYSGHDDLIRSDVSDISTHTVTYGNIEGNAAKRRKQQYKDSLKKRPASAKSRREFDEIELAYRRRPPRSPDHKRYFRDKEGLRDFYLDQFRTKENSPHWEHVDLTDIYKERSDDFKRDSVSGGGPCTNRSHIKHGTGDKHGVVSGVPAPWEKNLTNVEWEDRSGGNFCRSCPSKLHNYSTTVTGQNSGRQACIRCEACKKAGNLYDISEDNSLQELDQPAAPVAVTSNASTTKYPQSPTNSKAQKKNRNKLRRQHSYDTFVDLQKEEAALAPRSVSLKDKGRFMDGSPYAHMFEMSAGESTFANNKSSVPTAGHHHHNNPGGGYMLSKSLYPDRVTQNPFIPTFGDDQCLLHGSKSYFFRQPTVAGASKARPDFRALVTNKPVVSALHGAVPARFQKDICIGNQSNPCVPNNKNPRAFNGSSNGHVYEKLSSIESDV
Chain of GlunN1/GluN2A glutamate receptors (Q12879 23-1464, other chains not shown): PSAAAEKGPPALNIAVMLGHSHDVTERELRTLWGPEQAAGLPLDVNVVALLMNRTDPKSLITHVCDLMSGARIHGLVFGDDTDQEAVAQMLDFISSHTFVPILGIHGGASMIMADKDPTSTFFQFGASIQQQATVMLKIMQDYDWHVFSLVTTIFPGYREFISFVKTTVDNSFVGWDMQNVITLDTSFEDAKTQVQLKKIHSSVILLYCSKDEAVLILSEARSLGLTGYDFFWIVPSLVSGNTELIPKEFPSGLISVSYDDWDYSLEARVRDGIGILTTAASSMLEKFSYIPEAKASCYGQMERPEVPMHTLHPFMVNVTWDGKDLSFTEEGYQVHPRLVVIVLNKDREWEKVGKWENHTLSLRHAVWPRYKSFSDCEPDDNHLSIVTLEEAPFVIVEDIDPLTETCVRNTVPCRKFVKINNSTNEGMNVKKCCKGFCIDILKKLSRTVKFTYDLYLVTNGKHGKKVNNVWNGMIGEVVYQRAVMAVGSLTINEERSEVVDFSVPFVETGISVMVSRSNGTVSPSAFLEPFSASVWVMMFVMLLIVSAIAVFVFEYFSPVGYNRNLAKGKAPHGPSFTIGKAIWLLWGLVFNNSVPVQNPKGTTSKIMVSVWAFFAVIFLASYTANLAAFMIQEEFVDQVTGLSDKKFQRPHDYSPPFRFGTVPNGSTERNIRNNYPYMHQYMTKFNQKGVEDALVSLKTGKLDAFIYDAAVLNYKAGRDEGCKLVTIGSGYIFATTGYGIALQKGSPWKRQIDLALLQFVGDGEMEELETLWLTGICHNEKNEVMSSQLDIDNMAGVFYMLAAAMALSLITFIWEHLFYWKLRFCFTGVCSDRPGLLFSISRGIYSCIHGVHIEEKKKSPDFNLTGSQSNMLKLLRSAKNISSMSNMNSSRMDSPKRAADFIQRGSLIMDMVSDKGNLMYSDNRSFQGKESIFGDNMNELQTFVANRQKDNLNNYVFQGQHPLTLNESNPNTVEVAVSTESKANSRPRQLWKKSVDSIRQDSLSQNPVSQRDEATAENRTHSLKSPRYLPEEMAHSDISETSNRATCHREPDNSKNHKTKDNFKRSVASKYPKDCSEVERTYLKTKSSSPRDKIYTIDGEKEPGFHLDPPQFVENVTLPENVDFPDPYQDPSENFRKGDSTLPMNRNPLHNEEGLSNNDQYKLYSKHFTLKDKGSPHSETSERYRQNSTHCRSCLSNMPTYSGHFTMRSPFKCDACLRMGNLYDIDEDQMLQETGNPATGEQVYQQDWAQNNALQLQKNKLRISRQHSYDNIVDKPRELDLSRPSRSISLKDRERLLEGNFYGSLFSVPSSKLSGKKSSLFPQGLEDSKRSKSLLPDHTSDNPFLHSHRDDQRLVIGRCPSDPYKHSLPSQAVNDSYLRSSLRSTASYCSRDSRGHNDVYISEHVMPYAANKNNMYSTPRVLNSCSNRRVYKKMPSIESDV

SMILES | EC50 [1] [µM] | Emax [1, 3] [%] | EC50 [2] [µM] | Emax [2, 4] [%] | EC50 [1, 5] [µM] | EC50 [2, 6] [µM] | Emax [1, 7] [%] | Emax [2] [%]
CC[C@]1(O)CC[C@@]2(C)C(=CC[C@H]3[C@@H]4CC[C@H]([C@H](C)CCC(O)c5ccccc5)[C@@]4(C)CC[C@@H]32)C1 (stereo partly drawn) [Compound 761] | 0.476 | 302 | 0.249 | 197 | – | – | – | –
CC[C@]1(O)CC[C@H]2C(=CC[C@@H]3[C@@H]2CC[C@]2(C)[C@@H]([C@H](C)CC[C@H](O)C(C)C)CC[C@@H]32)C1 [Compound 8462] | 0.17 | – | 0.0962 | – | – | – | – | –
CC[C@]1(O)CC[C@@]2(C)[C@@H](CC[C@@H]3[C@@H]2CC[C@]2(C)[C@@H]([C@H](C)CC[C@@H](O)c4ccccn4)CC[C@@H]32)C1 [Compound 7030] | – | 28.3 | – | 74.7 | – | – | – | –
CC[C@]1(O)CC[C@H]2[C@@H](CC[C@@H]3[C@@H]2CC[C@]2(C)[C@@H]([C@H](C)CC[C@@H](O)C(C)C)CC[C@@H]32)C1 [Compound 4B77] | – | 467 | – | 320 | 0.467 | 0.298 | – | –
C[C@H](CCC(O)Cc1ccccc1)[C@H]1CC[C@H]2[C@@H]3CC=C4C[C@@](C)(O)CC[C@]4(C)[C@H]3CC[C@]12C (stereo partly drawn) [Compound 660] | – | 195 | – | 281 | – | – | – | –
C[C@H](CCC1(O)CCC(C(C)(C)C)CC1)[C@H]1CC[C@H]2[C@@H]3CC[C@H]4C[C@](O)(C(F)(F)F)CC[C@]4(C)[C@H]3CC[C@]12C (stereo partly drawn) [Compound 4360] | – | 38.1 | – | 14.6 | – | – | – | –
CC[C@H]1CC[C@@](O)(CC[C@@H](C)[C@H]2CC[C@H]3[C@@H]4CC[C@H]5C[C@](O)(C(F)(F)F)CC[C@]5(C)[C@H]4CC[C@]23C)CC1 [Compound 4475] | 0.461 | 364 | 0.266 | 355 | – | – | – | –
CC[C@]1(O)CC[C@@]2(C)C(=CC[C@H]3[C@@H]4CC[C@H]([C@H](C)CC[C@H](O)c5ccccc5C#N)[C@@]4(C)CC[C@@H]32)C1 [Compound 7300] | > 10 | 37.5 | > 10 | 46.9 | – | – | – | –
C[C@H](CCC(O)C(C)(C)C)[C@H]1CC[C@H]2[C@@H]3CC=C4C[C@](O)(C(F)(F)F)CC[C@]4(C)[C@H]3CC[C@]12C (stereo partly drawn) [Compound 2500] | 0.0633 | – | 0.0911 | – | – | – | – | –
C[C@H](CC[C@](C)(O)c1ccccc1)[C@H]1CC[C@H]2[C@@H]3CC=C4C[C@@](C)(O)CC[C@]4(C)[C@H]3CC[C@]12C [Compound 7468] | – | – | – | – | – | – | 273 | 317
CC[C@]1(O)CC[C@@]2(C)[C@@H](CC[C@@H]3[C@@H]2CC[C@]2(C)[C@@H]([C@H](C)CCC(O)c4ccccc4)CC[C@@H]32)C1 (stereo partly drawn) [Compound 6544] | 0.559 | 253 | 0.498 | 415 | – | – | – | –
C[C@H](CC[C@]1(O)CC[C@@H](C)CC1)[C@H]1CC[C@H]2[C@@H]3CC[C@H]4C[C@](O)(C(F)(F)F)CC[C@]4(C)[C@H]3CC[C@]12C [Compound 3886] | – | – | – | – | – | – | 106 | 164
CC[C@]1(O)CC[C@H]2C(=CC[C@@H]3[C@@H]2CC[C@]2(C)[C@@H]([C@H](C)CCC[C@](C)(O)C(F)(F)F)CC[C@@H]32)C1 [Compound 10557] | – | 190 | – | 202 | 0.287 | 0.192 | – | –
CC[C@H](O)CC[C@@H](C)[C@H]1CC[C@H]2[C@@H]3CC=C4C[C@](O)(CC)CC[C@@H]4[C@H]3CC[C@]12C [Compound 8585] | 0.286 | 194 | 0.237 | 233 | – | – | – | –
CC[C@]1(O)CC[C@@]2(C)C(=CC[C@H]3[C@@H]4CC[C@H]([C@H](C)CC[C@@H](O)c5cccc(F)c5)[C@@]4(C)CC[C@@H]32)C1 (single isomer, unassigned) [Compound 6895] | 0.174 | 241 | 0.329 | 354 | – | – | – | –
C[C@H](CCCC1(O)CC1)[C@H]1CC[C@H]2[C@@H]3CC[C@H]4C[C@](O)(C(F)(F)F)CC[C@]4(C)[C@H]3CC[C@]12C [Compound 4115] | 0.0919 | – | 0.114 | – | – | – | – | –
CC[C@]1(O)CC[C@H]2[C@@H](CC[C@@H]3[C@@H]2CC[C@]2(C)[C@@H]([C@H](C)CCC(C)(C)O)CC[C@@H]32)C1 [Compound 679] | – | 105 | – | 172 | 5.11 | 0.28 | – | –
C[C@H](O)CCC[C@@H](C)[C@H]1CC[C@H]2[C@@H]3CC[C@H]4C[C@](O)(C(F)(F)F)CC[C@]4(C)[C@H]3CC[C@]12C [Compound 2113] | – | 403 | – | 285 | – | – | – | –
CCC(O)CCC[C@@H](C)[C@H]1CC[C@H]2[C@@H]3CC=C4C[C@](O)(CC)CC[C@@H]4[C@H]3CC[C@]12C (stereo partly drawn) [Compound 10673] | – | – | – | – | – | – | 216 | 214
C[C@H](CC[C@H](O)C(C)(C)C)[C@H]1CC[C@H]2[C@@H]3CC[C@@H]4C[C@](O)(C(F)(F)F)CC[C@]4(C)[C@H]3CC[C@]12C [Compound 3634] | 0.423 | – | 0.404 | – | – | – | – | –
C[C@H](CC[C@@H](O)C1CCOCC1)[C@H]1CC[C@H]2[C@@H]3CC[C@H]4C[C@](O)(C(F)(F)F)CC[C@]4(C)[C@H]3CC[C@]12C [Compound 2081] | 0.129 | 126 | 0.175 | 215 | – | – | – | –
CC[C@]1(O)CC[C@H]2[C@@H](CC[C@@H]3[C@@H]2CC[C@]2(C)[C@@H]([C@H](C)CCCC4(O)CCC(F)(F)CC4)CC[C@@H]32)C1 [Compound 9813] | – | 68.7 | – | 99.9 | 0.469 | 0.268 | – | –
C[C@H](CC[C@@H](C)O)[C@H]1CC[C@H]2[C@@H]3CC[C@H]4C[C@](O)(C(F)(F)F)CC[C@]4(C)[C@H]3CC[C@]12C [Compound 2285] | 0.764 | 205 | 0.494 | 220 | – | – | – | –
COC[C@H]1CC[C@](O)(CC[C@@H](C)[C@H]2CC[C@H]3[C@@H]4CC[C@H]5C[C@](O)(C(F)(F)F)CC[C@]5(C)[C@H]4CC[C@]23C)CC1 [Compound 4657] | 0.422 | 74 | 0.13 | 62.9 | – | – | – | –
CC[C@]1(O)CC[C@H]2C(=CC[C@@H]3[C@@H]2CC[C@]2(C)[C@@H]([C@H](C)CCC[C@@H](C)O)CC[C@@H]32)C1 [Compound 9792] | – | 64.5 | – | 58.2 | – | – | – | –
C[C@H](CCC1(O)CCOC1)[C@H]1CC[C@H]2[C@@H]3CC[C@H]4C[C@](O)(C(F)(F)F)CC[C@]4(C)[C@H]3CC[C@]12C (stereo partly drawn) [Compound 1967] | 0.171 | 347 | 0.113 | 374 | – | – | – | –
CC[C@]1(O)CC[C@H]2C(=CC[C@@H]3[C@@H]2CC[C@]2(C)[C@@H]([C@H](C)CC[C@H](O)C(C)(C)C)CC[C@@H]32)C1 [Compound 8378] | 0.124 | – | 0.208 | – | – | – | 195 | 259
CC[C@]1(O)CC[C@H]2C(=CC[C@@H]3[C@@H]2CC[C@]2(C)[C@@H]([C@H](C)CCCC4(O)CCC(F)(F)CC4)CC[C@@H]32)C1 [Compound 9810] | – | 87.1 | – | 91.6 | 0.124 | 0.151 | – | –
C[C@H](CC[C@@H](O)C1CCCCC1)[C@H]1CC[C@H]2[C@@H]3CC[C@H]4C[C@](O)(C(F)(F)F)CC[C@]4(C)[C@H]3CC[C@]12C [Compound 4156] | > 10 | 10.6 | > 10 | 20.1 | – | – | – | –
COC[C@H]1CC[C@@](O)(CC[C@@H](C)[C@H]2CC[C@H]3[C@@H]4CC[C@H]5C[C@](O)(C(F)(F)F)CC[C@]5(C)[C@H]4CC[C@]23C)CC1 [Compound 4656] | 1.6 | 134 | 2.16 | 122 | – | – | – | –
